In US9625449B2, “Determining the bioavailability of zinc (II) ions” (Colgate-Palmolive Company, priority 2014, dated 2017):

What was measured:
Type in all cases: physicochemical
[1] = Reaction of zincon with metal ions (colour change): Mg2+; conditions: solution with Mg^2+
Description: (§1) Certain dyes used to detect zinc ions also react with other metal ions. For example, Eriochrome Black T reacts with Mg^2+ and Ca^2+ ions, which are commonly encountered in biological tissues. Sources of calcium ions are frequently included in oral care compositions.

[2] = Reaction of zincon with metal ions (colour change): Zn2+; conditions: solution with Zn^2+
Description: as §1

[3] = Reaction of zincon with metal ions (colour change): Ca2+; conditions: solution with Ca^2+
Description: as §1

[4] = Reaction of zincon with metal ions (colour change): Cu2+; conditions: solution with Cu^2+
Description: as §1

[5] = Reaction of zincon with metal ions (colour change): Fe2+; conditions: solution with Fe^2+
Description: as §1

[6] = Absorbance of zincon as function of pH (detection of zinc)
Description: It has been reported in the literature that the working pH range for zincon is pH 8.5 to 9.5 (Yoe and Rush, 1952. “A new colorimetric reagent for zinc”, Analytica Chimica Acta, vol. 6, pp 526 to 527).

[7] = Reaction of zincon with metal ions (colour change): Co2+; conditions: solution with Co^2+
Description: as §1

colour change of zincon [1]: did not undergo a colour change
colour change of zincon [2]: deep blue complex
colour change of zincon [3]: did not undergo a colour change
colour change of zincon [5]: green solution
Absorbance of sample at 610 nm ([6]; pH 7.0): 0.233
Absorbance of sample at 610 nm ([6]; pH 7.5): 0.232
Absorbance of sample at 610 nm ([6]; pH 8.0): 0.245
Absorbance of sample at 610 nm ([6]; pH 8.5): 0.251
Absorbance of sample at 610 nm ([6]; pH 9.5): 0.252
colour change of zincon [7]: sky blue solution
Structure (SMILES): O=C(O)c1ccccc1N=NC(=NNc1cc(S(=O)(=O)[O-])ccc1O)c1ccccc1.[Na+] [zincon, o-[α-(2-hydroxy-5-sulfophenylazo)-benzylidene hydrazino]benzoic acid]
colour change of zincon [4]: difficult to distinguish from that of Zn^2+
